{"source": "patent US20100189701A1", "about": "“METHODS AND COMPOSITIONS TO TREAT ARRHYTHMIAS” (priority 2007, published 2010)", "key": {"[1]": {"conditions": "cited from earlier work"}, "[2]": {"assay": "Sodium channel steady state inactivation (literature values)", "conditions": "depolarization to −65 mV", "excerpt": "Since slow conduction is an essential feature of reentrant cardiac arrhythmias, it seems worth considering other mammalian sodium channels that might have more favorable properties than the cardiac Na channel in circumstances that favor slow conduction. One such circumstance is membrane depolarization and so the voltage dependence of steady state inactivation is of interest. Cohen Table I provides a comparison of the midpoints for steady state inactivation and slope factor for the cardiac and skeletal muscle sodium channels and a specific mutant of the skeletal muscle channel (G1306E). […] Thus, if cardiac muscle is depolarized to −65 mV, virtually all cardiac sodium channels would be inactivated, while a similar depolarization would leave almost half of normal skeletal muscle sodium channels available. This observation thus relates to a method of the present invention that the use of alternative sodium channels with more favorable biophysical properties serve as a useful antiarrhythmic therapy.\nBesides existing sodium channels, much has been learned from structure-function studies in which specific amino acids have been mutated. An extensive study of the S4 domain of the skeletal muscle sodium channel was conducted by Haywood et al. (1996), J. Gen. Physiol. 107, 559-576 in an attempt to understand the origins of enhanced excitability in inherited human myotonia. […]"}, "[3]": {"system": "neonatal rat ventricular myocyte cultures", "assay": "Conduction velocity in neonatal rat ventricular myocyte cultures on multi-electrode array", "type": "cell-based"}, "HCN2 induced current": {"system": "HCN2 induced current", "assay": "Autonomic agonists on HCN2 induced current in hMSCs", "type": "cell-based"}, "MMP-7": {"system": "MMP-7", "conditions": "clinically relevant dosages; cited from earlier work"}, "epicardial border zone": {"system": "epicardial border zone", "assay": "Canine infarct epicardial border zone, electrograms and microelectrode study", "type": "in vivo, dog", "conditions": "dog, in vivo"}, "[4]": {"system": "monomorphic ventricular tachycardia", "conditions": "one week after gene transfer; cited from earlier work"}, "hMSCs": {"system": "hMSCs", "assay": "Patch clamp of If in hMSCs transfected with mHCN2", "type": "cell-based, human", "excerpt": "FIG. 4: Example of loading hMSC with a gene of interest, studying it biophysically and determining its effect on the heart. Panels A-C study functional expression of If in hMSCs transfected via electroporation with mHCN2 gene. If was expressed in hMSCs transfected with the mHCN2 gene (B) but not in nontransfected stem cells (A). C, Fit by the Boltzmann equation to the normalized tail currents of If gives a midpoint of −91.8+/−0.9 mV and a slope of 8.8+/−0.5 mV (n=9). If was fully activated around −140 mV with an activation threshold of −60 mV. […] Voltage protocol was to hold at −30 mV and hyperpolarize for 1.5 seconds to voltages between −40 and −160 mV in 10-mV increments followed by a 1.5-second voltage step to +20 mV to record the tail currents. Panels D-E show function of hMSCs loaded with HCN2 gene 10 days after injection into canine LV anterior wall in dog in complete heart block. Panels D, placebo experiment, dog injected with saline. […] Panels E, dog injected with approximately 1.2 million hMSCs loaded with HCN2."}, "[5]": {"system": "neonatal and adult rat ventricular myocytes", "conditions": "adenoviral expression; cited from earlier work"}}, "data": [{"molecule": "skM1(G1306E): specific mutant of the skeletal muscle sodium channel", "values": [{"measurement": "inactivation midpoint", "setting": "[1]; as stated in Example 16 group description", "result": "−55", "unit": "mV"}, {"measurement": "activation midpoint", "setting": "[1]; as worded", "result": "−57", "unit": "mV"}, {"measurement": "Slope factor", "setting": "[1]; steady state inactivation", "result": "−5.2", "unit": "mV"}, {"measurement": "sodium channels available", "setting": "[2]", "result": "more than 70%"}]}, {"molecule": "p-conotoxin GIIIA [μ-CTX GIIIA]", "values": [{"measurement": "effect on CV", "setting": "[3]", "result": "CV is reduced in SkM1 cultures to the level recorded in GFP cultures"}]}, {"molecule": "CC(C)NCC(O)c1ccc(O)c(O)c1", "note": "(stereo not drawn) [isoproterenol]", "values": [{"measurement": "effect on expressed HCN2 current", "setting": "HCN2 induced current", "result": "has a direct effect on the expressed current"}]}, {"molecule": "COc1cc2ncnc(Nc3ccc(F)c(Cl)c3)c2cc1OCCCN1CCOCC1", "note": "[Gefitinib]", "values": [{"measurement": "MMP-7 activity", "setting": "MMP-7", "result": "inhibits MMP-7 activity"}]}, {"molecule": "NC1=N[C@H](O)[C@H]2[C@H]3O[C@]4(O)O[C@@H]([C@@H](O)[C@@]2(N1)[C@@H]4O)[C@]3(O)CO", "note": "[TTX, tetrodotoxin]", "values": [{"measurement": "Vmax and membrane responsiveness response", "setting": "epicardial border zone", "result": "significant response to TTX"}, {"measurement": "conduction velocity decrease", "setting": "[3]", "result": 20, "unit": "%"}]}, {"molecule": "Cx43: connexin", "values": [{"measurement": "animals showing no inducible monomorphic VT", "setting": "[4]", "result": "4 of 5"}]}, {"molecule": "mHCN2: pacemaker channel gene (protein, UniProt O88703 1-863, looked up) Potassium/sodium …: MDARGGGGRPGDSPGTTPAPGPPPPPPPPAPPQPQPPPAPPPNPTTPSHPESADEPGPRARLCSRDSACTPGAAKGGANGECGRGEPQCSPEGPARGPKVSFSCRGAASGPSAAEEAGSEEAGPAGEPRGSQASFLQRQFGALLQPGVNKFSLRMFGSQKAVEREQERVKSAGAWIIHPYSDFRFYWDFTMLLFMVGNLIIIPVGITFFKDETTAPWIVFNVVSDTFFLMDLVLNFRTGIVIEDNTEIILDPEKIKKKYLRTWFVVDFVSSIPVDYIFLIVEKGIDSEVYKTARALRIVRFTKILSLLRLLRLSRLIRYIHQWEEIFHMTYDLASAVMRICNLISMMLLLCHWDGCLQFLVPMLQDFPSDCWVSINNMVNHSWSELYSFALFKAMSHMLCIGYGRQAPESMTDIWLTMLSMIVGATCYAMFIGHATALIQSLDSSRRQYQEKYKQVEQYMSFHKLPADFRQKIHDYYEHRYQGKMFDEDSILGELNGPLREEIVNFNCRKLVASMPLFANADPNFVTAMLTKLKFEVFQPGDYIIREGTIGKKMYFIQHGVVSVLTKGNKEMKLSDGSYFGEICLLTRGRRTASVRADTYCRLYSLSVDNFNEVLEEYPMMRRAFETVAIDRLDRIGKKNSILLHKVQHDLSSGVFNNQENAIIQEIVKYDREMVQQAELGQRVGLFPPPPPPQVTSAIATLQQAVAMSFCPQVARPLVGPLALGSPRLVRRAPPGPLPPAASPGPPAASPPAAPSSPRAPRTSPYGVPGSPATRVGPALPARRLSRASRPLSASQPSLPHGVPAPSPAASARPASSSTPRLGPAPTARTAAPSPDRRDSASPGAASGLDPLDSARSRLSSNL", "values": [{"measurement": "activation threshold", "setting": "hMSCs", "result": "−60", "unit": "mV"}, {"measurement": "voltage of full activation", "setting": "hMSCs", "result": "around −140 mV"}, {"measurement": "midpoint of If activation (Boltzmann fit to tail currents)", "setting": "hMSCs; hMSCs transfected via electroporation, n=9", "result": "−91.8+/−0.9 mV"}, {"measurement": "slope of If activation", "setting": "hMSCs; n=9", "result": "8.8+/−0.5 mV"}, {"measurement": "voltage dependence of activation, neonatal vs adult myocytes", "setting": "[5]", "result": "about 20 mV"}]}, {"molecule": "HERG-G628S: dominant negative HERG mutant (protein, UniProt Q12809 1-1159, looked up, variant G628S) Voltage-gated inwardly …: MPVRRGHVAPQNTFLDTIIRKFEGQSRKFIIANARVENCAVIYCNDGFCELCGYSRAEVMQRPCTCDFLHGPRTQRRAAAQIAQALLGAEERKVEIAFYRKDGSCFLCLVDVVPVKNEDGAVIMFILNFEVVMEKDMVGSPAHDTNHRGPPTSWLAPGRAKTFRLKLPALLALTARESSVRSGGAGGAGAPGAVVVDVDLTPAAPSSESLALDEVTAMDNHVAGLGPAEERRALVGPGSPPRSAPGQLPSPRAHSLNPDASGSSCSLARTRSRESCASVRRASSADDIEAMRAGVLPPPPRHASTGAMHPLRSGLLNSTSDSDLVRYRTISKIPQITLNFVDLKGDPFLASPTSDREIIAPKIKERTHNVTEKVTQVLSLGADVLPEYKLQAPRIHRWTILHYSPFKAVWDWLILLLVIYTAVFTPYSAAFLLKETEEGPPATECGYACQPLAVVDLIVDIMFIVDILINFRTTYVNANEEVVSHPGRIAVHYFKGWFLIDMVAAIPFDLLIFGSGSEELIGLLKTARLLRLVRVARKLDRYSEYGAAVLFLLMCTFALIAHWLACIWYAIGNMEQPHMDSRIGWLHNLGDQIGKPYNSSGLGGPSIKDKYVTALYFTFSSLTSVGFSNVSPNTNSEKIFSICVMLIGSLMYASIFGNVSAIIQRLYSGTARYHTQMLRVREFIRFHQIPNPLRQRLEEYFQHAWSYTNGIDMNAVLKGFPECLQADICLHLNRSLLQHCKPFRGATKGCLRALAMKFKTTHAPPGDTLVHAGDLLTALYFISRGSIEILRGDVVVAILGKNDIFGEPLNLYARPGKSNGDVRALTYCDLHKIHRDDLLEVLDMYPEFSDHFWSSLEITFNLRDTNMIPGSPGSTELEGGFSRQRKRKLSFRRRTDKDTEQPGEVSALGPGRAGAGPSSRGRPGGPWGESPSSGPSSPESSEDEGPGRSSSPLRLVPFSSPRPPGEPPGGEPLMEDCEKSSDTCNPLSGAFSGVSNIFSFWGDSRGRQYQELPRCPAPTPSLLNIPLSSPGRRPRGDVESRLDALQRQLNRLETRLSADMATVLQLLQRQMTLVPPAYSAVTTPGPGPTSTSPLLPVSPLPTLTLDSLSQVSQFMACEELPPGAPELPQEGPTRRLSLPGQLGALTSQPLHRHGSDPGS", "values": [{"measurement": "animals showing no inducible monomorphic VT", "setting": "[4]", "result": "5 of 5"}]}, {"molecule": "ERG3: delayed rectifier with steady state window current (protein, UniProt Q9NS40 1-1196, looked up) Voltage-gated inwardly …: MPVRRGHVAPQNTFLGTIIRKFEGQNKKFIIANARVQNCAIIYCNDGFCEMTGFSRPDVMQKPCTCDFLHGPETKRHDIAQIAQALLGSEERKVEVTYYHKNGSTFICNTHIIPVKNQEGVAMMFIINFEYVTDNENAATPERVNPILPIKTVNRKFFGFKFPGLRVLTYRKQSLPQEDPDVVVIDSSKHSDDSVAMKHFKSPTKESCSPSEADDTKALIQPSKCSPLVNISGPLDHSSPKRQWDRLYPDMLQSSSQLSHSRSRESLCSIRRASSVHDIEGFGVHPKNIFRDRHASEDNGRNVKGPFNHIKSSLLGSTSDSNLNKYSTINKIPQLTLNFSEVKTEKKNSSPPSSDKTIIAPKVKDRTHNVTEKVTQVLSLGADVLPEYKLQTPRINKFTILHYSPFKAVWDWLILLLVIYTAIFTPYSAAFLLNDREEQKRRECGYSCSPLNVVDLIVDIMFIIDILINFRTTYVNQNEEVVSDPAKIAIHYFKGWFLIDMVAAIPFDLLIFGSGSDETTTLIGLLKTARLLRLVRVARKLDRYSEYGAAVLMLLMCIFALIAHWLACIWYAIGNVERPYLTDKIGWLDSLGQQIGKRYNDSDSSSGPSIKDKYVTALYFTFSSLTSVGFGNVSPNTNSEKIFSICVMLIGSLMYASIFGNVSAIIQRLYSGTARYHMQMLRVKEFIRFHQIPNPLRQRLEEYFQHAWTYTNGIDMNMVLKGFPECLQADICLHLNQTLLQNCKAFRGASKGCLRALAMKFKTTHAPPGDTLVHCGDVLTALYFLSRGSIEILKDDIVVAILGKNDIFGEMVHLYAKPGKSNADVRALTYCDLHKIQREDLLEVLDMYPEFSDHFLTNLELTFNLRHESAKADLLRSQSMNDSEGDNCKLRRRKLSFESEGEKENSTNDPEDSADTIRHYQSSKRHFEEKKSRSSSFISSIDDEQKPLFSGIVDSSPGIGKASGLDFEETVPTSGRMHIDKRSHSCKDITDMRSWERENAHPQPEDSSPSALQRAAWGISETESDLTYGEVEQRLDLLQEQLNRLESQMTTDIQTILQLLQKQTTVVPPAYSMVTAGSEYQRPIIQLMRTSQPEASIKTDRSFSPSSQCPEFLDLEKSKLKSKESLSSGVHLNTASEDNLTSLLKQDSDLSLELHLRQRKTYVHPIRHPSLPDSSLSTVGIVGLHRHVSDPGLPGK", "values": [{"measurement": "potential of maximal steady state conductance", "setting": "Xenopus oocytes", "result": "−50", "unit": "mV"}, {"measurement": "steady state window conductance vs other ERG family members", "setting": "Xenopus oocytes", "result": "largest steady state conductance"}]}]}
